# Source: PubChem BioAssay (NCI)
#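 Step 1: Grow cells in 96-well plates. Step 2: Expose to compound for 48 hours at 5 concentrations. Step 3: Interpolate endpoints linearly; if unreached, use highest concentration. Abbreviation: GI50, concentration required for 50% inhibition of growth. TGI is the concentration that stops growth completely.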
# Tests used:
# Assay in all cases: DTP human tumour cell line panel, 48 h
# 786-0 renal = test system: 786-0 renal
# A498 renal = test system: A498 renal
# A549 NSCLC = test system: A549 NSCLC
# ACHN renal = test system: ACHN renal
# BT-549 breast = test system: BT-549 breast
# CAKI-1 renal = test system: CAKI-1 renal
# CCRF-CEM leukemia = test system: CCRF-CEM leukemia
# COLO 205 colon = test system: COLO 205 colon
# DU-145 prostate = test system: DU-145 prostate
# EKVX NSCLC = test system: EKVX NSCLC
# HCC-2998 colon = test system: HCC-2998 colon
# HCT-116 colon = test system: HCT-116 colon
# HCT-15 colon = test system: HCT-15 colon
# HOP-62 NSCLC = test system: HOP-62 NSCLC
# HOP-92 NSCLC = test system: HOP-92 NSCLC
# HS 578T breast = test system: HS 578T breast
# HT29 colon = test system: HT29 colon
# IGROV1 ovarian = test system: IGROV1 ovarian
# K-562 leukemia = test system: K-562 leukemia
# KM12 colon = test system: KM12 colon
# LOX IMVI melanoma = test system: LOX IMVI melanoma
# M14 melanoma = test system: M14 melanoma
# MALME-3M melanoma = test system: MALME-3M melanoma
# MCF7 breast = test system: MCF7 breast
# MDA-MB-435 = test system: MDA-MB-435
# MOLT-4 leukemia = test system: MOLT-4 leukemia
# NCI-H226 lung = test system: NCI-H226 lung
# NCI-H23 lung = test system: NCI-H23 lung
# NCI-H460 lung = test system: NCI-H460 lung
# NCI-H522 lung = test system: NCI-H522 lung
# NCI/ADR-RES ovarian = test system: NCI/ADR-RES ovarian
# OVCAR-4 ovarian = test system: OVCAR-4 ovarian
# OVCAR-5 ovarian = test system: OVCAR-5 ovarian
# PC-3 prostate = test system: PC-3 prostate
# RPMI-8226 leukemia = test system: RPMI-8226 leukemia
# RXF 393 renal = test system: RXF 393 renal
# SF-268 CNS = test system: SF-268 CNS
# SF-295 CNS = test system: SF-295 CNS
# SF-539 CNS = test system: SF-539 CNS
# SK-MEL-5 melanoma = test system: SK-MEL-5 melanoma
# SK-OV-3 ovarian = test system: SK-OV-3 ovarian
# SN12C renal = test system: SN12C renal
# SNB-19 CNS = test system: SNB-19 CNS
# SNB-75 CNS = test system: SNB-75 CNS
# SW-620 colon = test system: SW-620 colon
# TK-10 renal = test system: TK-10 renal
# U251 CNS = test system: U251 CNS
# UACC-257 melanoma = test system: UACC-257 melanoma
# UACC-62 melanoma = test system: UACC-62 melanoma
# UO-31 renal = test system: UO-31 renal
# MDA-MB-231 breast = test system: MDA-MB-231 breast
# OVCAR-3 ovarian = test system: OVCAR-3 ovarian
# OVCAR-8 ovarian = test system: OVCAR-8 ovarian
# SK-MEL-2 melanoma = test system: SK-MEL-2 melanoma
# SK-MEL-28 melanoma = test system: SK-MEL-28 melanoma
# SR leukemia = test system: SR leukemia
# T-47D breast = test system: T-47D breast
compound,measurement,setting,value
N#Cc1c(NC(=O)c2ccc(F)c(Cl)c2)sc2c1CCC(=O)C2,GI50,786-0 renal,0.389 µM
same,TGI,786-0 renal,5.78 µM
same,GI50,A498 renal,2.4 µM
same,TGI,A498 renal,6.44 µM
same,GI50,A549 NSCLC,2.64 µM
same,TGI,A549 NSCLC,> 29.2 µM
same,GI50,ACHN renal,0.349 µM
same,TGI,ACHN renal,1.08 µM
same,GI50,BT-549 breast,0.223 µM
same,TGI,BT-549 breast,0.696 µM
same,GI50,CAKI-1 renal,0.302 µM
same,TGI,CAKI-1 renal,1.13 µM
same,GI50,CCRF-CEM leukemia,0.216 µM
same,TGI,CCRF-CEM leukemia,> 24.4 µM
same,GI50,COLO 205 colon,0.423 µM
same,TGI,COLO 205 colon,1.38 µM
same,GI50,DU-145 prostate,4.04 µM
same,TGI,DU-145 prostate,> 100 µM
same,GI50,EKVX NSCLC,1.06 µM
same,TGI,EKVX NSCLC,4.8 µM
same,GI50,HCC-2998 colon,1.32 µM
same,TGI,HCC-2998 colon,3.33 µM
same,GI50,HCT-116 colon,0.233 µM
same,TGI,HCT-116 colon,1.11 µM
same,GI50,HCT-15 colon,0.368 µM
same,TGI,HCT-15 colon,2.06 µM
same,GI50,HOP-62 NSCLC,2.51 µM
same,TGI,HOP-62 NSCLC,> 28.3 µM
same,GI50,HOP-92 NSCLC,0.231 µM
same,TGI,HOP-92 NSCLC,0.724 µM
same,GI50,HS 578T breast,0.523 µM
same,TGI,HS 578T breast,3.76 µM
same,GI50,HT29 colon,0.347 µM
same,TGI,HT29 colon,1.31 µM
same,GI50,IGROV1 ovarian,0.592 µM
same,TGI,IGROV1 ovarian,2.38 µM
same,GI50,K-562 leukemia,0.301 µM
same,TGI,K-562 leukemia,> 100 µM
same,GI50,KM12 colon,0.419 µM
same,TGI,KM12 colon,1.93 µM
same,GI50,LOX IMVI melanoma,0.404 µM
same,TGI,LOX IMVI melanoma,4.44 µM
same,GI50,M14 melanoma,0.365 µM
same,TGI,M14 melanoma,1.75 µM
same,GI50,MALME-3M melanoma,0.485 µM
same,TGI,MALME-3M melanoma,1.69 µM
same,GI50,MCF7 breast,0.337 µM
same,TGI,MCF7 breast,15 µM
same,GI50,MDA-MB-435,0.436 µM
same,TGI,MDA-MB-435,2.4 µM
same,GI50,MOLT-4 leukemia,0.332 µM
same,TGI,MOLT-4 leukemia,> 26 µM
same,GI50,NCI-H226 lung,2.04 µM
same,TGI,NCI-H226 lung,6.25 µM
same,GI50,NCI-H23 lung,0.371 µM
same,TGI,NCI-H23 lung,2.08 µM
same,GI50,NCI-H460 lung,1.94 µM
same,TGI,NCI-H460 lung,> 33.3 µM
same,GI50,NCI-H522 lung,0.2 µM
same,TGI,NCI-H522 lung,0.671 µM
same,GI50,NCI/ADR-RES ovarian,0.449 µM
same,TGI,NCI/ADR-RES ovarian,> 100 µM
same,GI50,OVCAR-4 ovarian,0.578 µM
same,TGI,OVCAR-4 ovarian,2 µM
same,GI50,OVCAR-5 ovarian,0.728 µM
same,TGI,OVCAR-5 ovarian,3.02 µM
same,GI50,PC-3 prostate,0.237 µM
same,TGI,PC-3 prostate,1.35 µM
same,GI50,RPMI-8226 leukemia,0.155 µM
same,TGI,RPMI-8226 leukemia,0.684 µM
same,GI50,RXF 393 renal,0.353 µM
same,TGI,RXF 393 renal,1.3 µM
same,GI50,SF-268 CNS,0.89 µM
same,TGI,SF-268 CNS,6.36 µM
same,GI50,SF-295 CNS,1.12 µM
same,TGI,SF-295 CNS,3.89 µM
same,GI50,SF-539 CNS,0.312 µM
same,TGI,SF-539 CNS,1.15 µM
same,GI50,SK-MEL-5 melanoma,1.23 µM
same,TGI,SK-MEL-5 melanoma,2.59 µM
same,GI50,SK-OV-3 ovarian,1.47 µM
same,TGI,SK-OV-3 ovarian,3.03 µM
same,GI50,SN12C renal,0.351 µM
same,TGI,SN12C renal,1.56 µM
same,GI50,SNB-19 CNS,0.672 µM
same,TGI,SNB-19 CNS,10.4 µM
same,GI50,SNB-75 CNS,1.42 µM
same,TGI,SNB-75 CNS,4.21 µM
same,GI50,SW-620 colon,0.406 µM
same,TGI,SW-620 colon,1.87 µM
same,GI50,TK-10 renal,0.44 µM
same,TGI,TK-10 renal,2.02 µM
same,GI50,U251 CNS,0.353 µM
same,TGI,U251 CNS,1.36 µM
same,GI50,UACC-257 melanoma,1.52 µM
same,TGI,UACC-257 melanoma,4.26 µM
same,GI50,UACC-62 melanoma,0.426 µM
same,TGI,UACC-62 melanoma,1.94 µM
same,GI50,UO-31 renal,0.298 µM
same,TGI,UO-31 renal,1.17 µM
COc1ccc(C2C(C#N)=C(N)Oc3c2sc2ccc(C)cc32)cc1 (configuration not stated),GI50,786-0 renal,3.64 µM
same,TGI,786-0 renal,15.1 µM
same,GI50,A498 renal,47 µM
same,TGI,A498 renal,> 100 µM
same,GI50,A549 NSCLC,6.94 µM
same,TGI,A549 NSCLC,> 100 µM
same,GI50,ACHN renal,6.44 µM
same,TGI,ACHN renal,> 100 µM
same,GI50,BT-549 breast,2.7 µM
same,TGI,BT-549 breast,7.68 µM
same,GI50,CAKI-1 renal,3.52 µM
same,TGI,CAKI-1 renal,56.4 µM
same,GI50,CCRF-CEM leukemia,3.78 µM
same,TGI,CCRF-CEM leukemia,> 100 µM
same,GI50,COLO 205 colon,3.7 µM
same,TGI,COLO 205 colon,> 100 µM
same,GI50,DU-145 prostate,7.08 µM
same,TGI,DU-145 prostate,> 100 µM
same,GI50,EKVX NSCLC,7.35 µM
same,TGI,EKVX NSCLC,> 100 µM
same,GI50,HCC-2998 colon,6.37 µM
same,TGI,HCC-2998 colon,> 100 µM
same,GI50,HCT-116 colon,3.68 µM
same,TGI,HCT-116 colon,83.9 µM
same,GI50,HCT-15 colon,3.35 µM
same,TGI,HCT-15 colon,> 100 µM
same,GI50,HOP-62 NSCLC,3.71 µM
same,TGI,HOP-62 NSCLC,28.1 µM
same,GI50,HOP-92 NSCLC,1.05 µM
same,TGI,HOP-92 NSCLC,7.07 µM
same,GI50,HS 578T breast,3.31 µM
same,TGI,HS 578T breast,36.8 µM
same,GI50,HT29 colon,3.14 µM
same,TGI,HT29 colon,9.79 µM
same,GI50,IGROV1 ovarian,4.64 µM
same,TGI,IGROV1 ovarian,> 100 µM
same,GI50,K-562 leukemia,1.56 µM
same,TGI,K-562 leukemia,> 100 µM
same,GI50,KM12 colon,3.81 µM
same,TGI,KM12 colon,> 100 µM
same,GI50,LOX IMVI melanoma,5.92 µM
same,TGI,LOX IMVI melanoma,> 100 µM
same,GI50,M14 melanoma,2.84 µM
same,TGI,M14 melanoma,14.6 µM
same,GI50,MALME-3M melanoma,3.56 µM
same,TGI,MALME-3M melanoma,62.3 µM
same,GI50,MCF7 breast,1.25 µM
same,TGI,MCF7 breast,> 100 µM
same,GI50,MDA-MB-231 breast,9.6 µM
same,TGI,MDA-MB-231 breast,86.7 µM
same,GI50,MDA-MB-435,0.568 µM
same,TGI,MDA-MB-435,2.17 µM
same,GI50,MOLT-4 leukemia,3.63 µM
same,TGI,MOLT-4 leukemia,> 100 µM
same,GI50,NCI-H226 lung,3.92 µM
same,TGI,NCI-H226 lung,57.5 µM
same,GI50,NCI-H460 lung,3.41 µM
same,TGI,NCI-H460 lung,18.3 µM
same,GI50,NCI-H522 lung,1.24 µM
same,TGI,NCI-H522 lung,4.48 µM
same,GI50,NCI/ADR-RES ovarian,3.34 µM
same,TGI,NCI/ADR-RES ovarian,> 100 µM
same,GI50,OVCAR-3 ovarian,3.71 µM
same,TGI,OVCAR-3 ovarian,> 100 µM
same,GI50,OVCAR-4 ovarian,8.07 µM
same,TGI,OVCAR-4 ovarian,> 100 µM
same,GI50,OVCAR-5 ovarian,5.77 µM
same,TGI,OVCAR-5 ovarian,> 100 µM
same,GI50,OVCAR-8 ovarian,9.93 µM
same,TGI,OVCAR-8 ovarian,> 100 µM
same,GI50,PC-3 prostate,3.46 µM
same,TGI,PC-3 prostate,> 100 µM
same,GI50,RPMI-8226 leukemia,3.95 µM
same,TGI,RPMI-8226 leukemia,> 100 µM
same,GI50,RXF 393 renal,2.64 µM
same,TGI,RXF 393 renal,9.98 µM
same,GI50,SF-268 CNS,5.24 µM
same,TGI,SF-268 CNS,> 100 µM
same,GI50,SF-295 CNS,3.93 µM
same,TGI,SF-295 CNS,28.6 µM
same,GI50,SF-539 CNS,3.21 µM
same,TGI,SF-539 CNS,13.4 µM
same,GI50,SK-MEL-2 melanoma,2.2 µM
same,TGI,SK-MEL-2 melanoma,7.49 µM
same,GI50,SK-MEL-28 melanoma,5.86 µM
same,TGI,SK-MEL-28 melanoma,> 100 µM
same,GI50,SK-MEL-5 melanoma,10.7 µM
same,TGI,SK-MEL-5 melanoma,> 100 µM
same,GI50,SK-OV-3 ovarian,5.2 µM
same,TGI,SK-OV-3 ovarian,54.8 µM
same,GI50,SN12C renal,4.46 µM
same,TGI,SN12C renal,> 100 µM
same,GI50,SNB-19 CNS,6.01 µM
same,TGI,SNB-19 CNS,86.7 µM
same,GI50,SNB-75 CNS,1.9 µM
same,TGI,SNB-75 CNS,5.51 µM
same,GI50,SR leukemia,2.42 µM
same,TGI,SR leukemia,> 100 µM
same,GI50,SW-620 colon,2.81 µM
same,TGI,SW-620 colon,> 100 µM
same,GI50,T-47D breast,3.13 µM
same,TGI,T-47D breast,> 100 µM
same,GI50,TK-10 renal,23 µM
same,TGI,TK-10 renal,> 100 µM
same,GI50,U251 CNS,3.78 µM
same,TGI,U251 CNS,27.5 µM
same,GI50,UACC-257 melanoma,4.03 µM
same,TGI,UACC-257 melanoma,> 100 µM
same,GI50,UACC-62 melanoma,3.26 µM
same,TGI,UACC-62 melanoma,49.9 µM
same,GI50,UO-31 renal,3.56 µM
same,TGI,UO-31 renal,> 100 µM
